Source: patent publication US20220056043A1, “NITROGEN-CONTAINING FUSED CYCLIC COMPOUND, PREPARATION METHOD THEREFOR AND USE THEREOF” (SICHUAN KELUN-BIOTECH BIOPHARMACEUTICAL CO., LTD., priority 2019, published 2022)

How the values were obtained:
[1] = target: T1, hTLR8 (Homo sapiens, UniProt Q9NR97); experiment: Agonistic effect on hTLR8, HEK-Blue hTLR8 cells, alkaline phosphatase secretion; assay type: cell-based; conditions: 16 hours
T1 construct: host or cells: HEK-Blue hTLR8 cells
T1 sequence (Q9NR97 27-1041): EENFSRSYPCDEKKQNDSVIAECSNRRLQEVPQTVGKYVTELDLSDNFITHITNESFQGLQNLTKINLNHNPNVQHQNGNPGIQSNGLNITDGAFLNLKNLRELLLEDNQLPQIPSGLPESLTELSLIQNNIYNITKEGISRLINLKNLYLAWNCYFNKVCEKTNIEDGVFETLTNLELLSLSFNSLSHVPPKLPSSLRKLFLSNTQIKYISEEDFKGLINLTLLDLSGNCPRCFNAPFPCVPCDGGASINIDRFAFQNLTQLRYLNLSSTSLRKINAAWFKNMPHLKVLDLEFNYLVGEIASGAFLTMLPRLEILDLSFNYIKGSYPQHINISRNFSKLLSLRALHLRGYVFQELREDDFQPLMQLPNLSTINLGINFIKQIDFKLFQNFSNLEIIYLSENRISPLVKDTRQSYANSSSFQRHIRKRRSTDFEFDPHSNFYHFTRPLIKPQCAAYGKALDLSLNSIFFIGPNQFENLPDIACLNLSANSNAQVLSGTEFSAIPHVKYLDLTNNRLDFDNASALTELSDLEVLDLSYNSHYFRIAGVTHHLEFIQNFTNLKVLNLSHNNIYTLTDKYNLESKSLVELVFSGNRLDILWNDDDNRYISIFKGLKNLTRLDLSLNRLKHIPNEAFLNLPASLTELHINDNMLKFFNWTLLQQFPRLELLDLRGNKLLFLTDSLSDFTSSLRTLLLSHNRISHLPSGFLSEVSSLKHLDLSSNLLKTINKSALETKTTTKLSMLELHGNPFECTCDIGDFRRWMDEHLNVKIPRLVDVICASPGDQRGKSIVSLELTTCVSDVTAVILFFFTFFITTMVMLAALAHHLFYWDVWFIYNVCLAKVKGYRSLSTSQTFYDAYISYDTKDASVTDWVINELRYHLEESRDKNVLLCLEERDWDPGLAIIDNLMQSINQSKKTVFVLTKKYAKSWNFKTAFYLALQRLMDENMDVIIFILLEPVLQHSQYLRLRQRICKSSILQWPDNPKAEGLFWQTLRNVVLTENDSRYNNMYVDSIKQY
Description: Experimental Example 4: Agonistic Effect of the Compound of the Invention on hTLR8
In this test, the secretion of alkaline phosphatase in HEK-Blue cells was measured to test the activating effect of the compound of the invention on TLR8 signaling pathway, so as to evaluate the specificity of the agonistic effect of the compound on NLRP3 pathway.
Reagents: DMEM (High glucose); FBS (fetal bovine serum) (Gibco); QUANTI-Blue/InvivoGen/rep-qb2
Cells: HEK-Blue™ hTLR8 cells (human TLR 8 cells) (InvivoGen) Experimental Procedures:
1) The HEK-Blue™ hTLR8 cells in a logarithmic growth phase were trypsinized and resuspended in the medium to a concentration of 2×10^6 cells/mL. 50 μL/well of the cell suspension was added to a 96-well plate. An appropriate amount of 10 mM DMSO solution of the compound to be tested was taken and diluted to a concentration of 2× test concentration with the medium. 50 μL/well was added to the cells in the 96-well plate. The plate was incubated in an incubator at 37° C. and 5% CO2 for 16 hours. The medium was DMEM (High glucose) containing 10% FBS. 2) After the cell incubation, 10 μL of cell culture supernatant was transferred to a 96-well plate. 90 μL/well of QUANTI-Blue detection solution was added, and the mixture was incubated at 37° C. for 3 hours. OD620 was read using a microplate reader.
3) The EC50 of the effect of the tested compound to stimulate hTLR8 was fitted by the GraphPad software log(agonist) vs. response—Variable slope four-parameter method.

[2] = test system: THP1-defNLRP3 cells; experiment: Agonistic effect on the expression of IL-1β in NLRP3 deficient THP1 cells (THP1-defNLRP3) after PMA-induced differentiation (HTRF); assay type: cell-based, human; conditions: Homo sapiens, THP-1; IL-1β level, PMA-differentiated NLRP3 deficient THP1 cells, 6 hours; highest test concentration 30 μM; read-out: hNLRP3 EC50 (μM) (THP-1defNLRP3)
Description: Experimental Example 2: Agonistic Effect of the Compound of the Invention on the Expression of IL-1β in NLRP3 Deficient THP1 Cells (THP1-defNLRP3 Cells) after PMA-Induced Differentiation
In this test, a HTRF detection method was used to test the effect of the compound of the invention on the level of IL-1β in THP1-defNLRP3 cells to evaluate the specificity of the agonistic effect of the compound on hNLRP3 inflammasome or hNLRP3 inflammasome pathway.
Reagents: as described in Experimental Example 1
Cell: THP1-defNLRP3 (InvivoGen)
Kit: IL-1β assay kit (CISBIO)
1) THP1-defNLRP3 cells in a logarithmic growth phase were seeded in a T75 culture flask at a density of 5×10^5 cells/well, and cultured in a cell incubator at 37° C., 5% CO2 for 24 hours, and then 1 μM PMA was used to induce THP1-defNLRP3 suspension cells to become adherent macrophages. The medium was RPMI 1640 containing 10% heat-inactivated FBS and 0.05 mM β-mercaptoethanol.
2) The cells were induced and cultured for 24 hours. Then the adherent cells were trypsinized and centrifuged at 1000 rpm for 5 min. The supernatant was removed, and the cells were resuspended to a density of 2×10^6 cells/mL in RPMI 1640 medium containing 2% heat-inactivated FBS. 50 μL/well of the cell resuspension was taken and spread on a 96-well plate such that the number of cells in each well was 1×10^5.
3) An appropriate amount of 10 mM DMSO solution of the compound to be tested was taken and diluted to a concentration of 2× test concentration with RPMI 1640 medium containing 2% heat-inactivated FBS. 50 μL/well of the dilution was added to the cells in the 96-well plate, and mixed well. The plate was incubated in a cell incubator at 37° C., 5% CO2 for 6 hours. The supernatant was collected, and the level of IL-1β was measured in accordance with the instructions of the IL-1β detection kit.
4) EC50 was fitted by the GraphPad software log(agonist) vs. response—Variable slope four-parameter method.

Compound	EC50 [1]	EC50 [2]
CO[C@H](C)CNc1cc(N)nc2cc(-c3ccn[nH]3)sc12 [Compound 101, (R)—N^7-(2-methoxypropyl)-2-(1H-pyrazol-5-yl)thieno[3,2-b]pyridine-5,7-diamine]	> 100 µM	> 30 µM
CN(CCCNc1cc(N)nc2cc(-c3ccn[nH]3)sc12)C(=O)C1CC1 [Compound 76, N-(3-((5-amino-2-(1H-pyrazol-5-yl)thieno[3,2-b]pyridin-7-yl)amino)propyl)-N-methylcyclopropane formamide]	> 100 µM	> 30 µM
Nc1cc(NCCCO)c2sc(-c3ccncc3)cc2n1 [Compound 90, 3-((5-amino-2-(pyridin-4-yl)thieno[3,2-b]pyridin-7-yl)amino)-1-propanol]	> 100 µM	> 30 µM
C[C@@H]1CN(c2cc(N)nc3cc(-c4ccn[nH]4)sc23)C[C@H](C)O1 [Compound 169]	> 100 µM	> 30 µM
Cc1cccc(-c2cc3nc(N)cc(NCCCO)c3s2)n1 [Compound 91, 3-((5-amino-2-(6-methylpyridin-2-yl)thieno[3,2-b]pyridin-7-yl)amino)-1-propanol]	> 100 µM	> 30 µM
N#CC1(CNc2cc(N)nc3cc(-c4ccn[nH]4)sc23)CC1 [Compound 119]	> 100 µM	> 30 µM
Nc1cc(NCCNC(=O)C2CC2)c2sc(-c3ccn[nH]3)cc2n1 [Compound 64]	> 100 µM	> 30 µM
Nc1cc(NCCN2CCOCC2)c2sc(-c3ccn[nH]3)cc2n1 [Compound 55, N^7-(2-morpholinoethyl)-2-(1H-pyrazol-5-yl)thieno[3,2-b]pyridine-5,7-diamine]	> 100 µM	> 30 µM
CN1CCC(Nc2cc(N)nc3cc(-c4ccn[nH]4)sc23)CC1 [Compound 89, N^7-(1-methylpiperidin-4-yl)-2-(1H-pyrazol-5-yl)thieno[3,2-b]pyridine-5,7-diamine]	> 100 µM	> 30 µM
CN1CC[C@H](Nc2cc(N)nc3cc(-c4ccn[nH]4)sc23)C1 [Compound 51, (S)—N^7-(1-methylpyrrolidin-3-yl)-2-(1H-pyrazol-5-yl)thieno[3,2-b]pyridine-5,7-diamine]	> 100 µM	> 30 µM
C[C@@H]1CN(CCNc2cc(N)nc3cc(-c4ccn[nH]4)sc23)C[C@H](C)O1 [Compound 117, N^7-(2-((2S,6R)-2,6-dimethylmorpholino)ethyl)-2-(1H-pyrazol-5-yl)thieno[3,2-b]pyridine-5,7-diamine]	> 100 µM	> 30 µM
C[C@H]1CN(c2cc(N)nc3cc(-c4ccn[nH]4)sc23)C[C@H](C)O1 [Compound 168]	> 100 µM	> 30 µM
CN1CCN(CCNc2cc(N)nc3cc(-c4ccn[nH]4)sc23)CC1 [Compound 57, N^7-(2-(4-methylpiperazin-1-yl)ethyl)-2-(1H-pyrazol-5-yl)thieno[3,2-b]pyridine-5,7-diamine]	> 100 µM	> 30 µM
CC(=O)N1CCC(Nc2cc(N)nc3cc(-c4ccn[nH]4)sc23)CC1 [Compound 92, 1-(4-((5-amino-2-(1H-pyrazol-5-yl)thieno[3,2-b]pyridin-7-yl)amino)piperidin-1-yl)ethanone]	> 100 µM	> 30 µM
CC(=O)N(C)CCNc1cc(N)nc2cc(-c3ccn[nH]3)sc12 [Compound 73, N-(2-((5-amino-2-(1H-pyrazol-5-yl)thieno[3,2-b]pyridin-7-yl)amino)ethyl)-N-methylethanamide]	> 100 µM	> 30 µM
Nc1cc(N2CC3CC(C2)N3)c2sc(-c3ccn[nH]3)cc2n1 [Compound 176]	> 100 µM	> 30 µM
Nc1cc(NCC(F)F)c2sc(-c3ccn[nH]3)cc2n1 [Compound 116, N^7-(2,2-difluoroethyl)-2-(1H-pyrazol-5-yl)thieno[3,2-b]pyridine-5,7-diamine]	> 100 µM	> 30 µM
Cn1cc(CNc2cc(N)nc3cc(-c4ccn[nH]4)sc23)cn1 [Compound 106, N^7-(1-methyl-1H-pyrazol-4-yl)methyl-2-(1H-pyrazol-5-yl)thieno[3,2-b]pyridine-5,7-diamine]	> 100 µM	> 30 µM
CC1(O)CCN(CCNc2cc(N)nc3cc(-c4ccn[nH]4)sc23)CC1 [Compound 98, 1-(2-((5-amino-2-(1H-pyrazol-5-yl)thieno[3,2-b]pyridin-7-yl)amino)ethyl)-4-methylpiperidine-4-ol]	> 100 µM	> 30 µM
Nc1cc(NCCCNC(=O)C2CC2)c2sc(-c3ccn[nH]3)cc2n1 [Compound 58]	> 100 µM	> 30 µM
